Assay results taken from patent publication US6057153A, “Stabilized external guide sequences” (Yale University, priority 1997, dated 2000).
“Also recorded” adds a separate entry of the source.

Assays:
[1] = tested on: short substrate (SEQ ID NO. 1) derived from the full-length pre-genomic HBV RNA; experiment: RNAse P cleavage assay, short substrate; assay type: biochemical; conditions: for efficiency of RNase P-mediated target cleavage relative to the wild-type EGS: short substrate, EGS 200 nM, 37° C., 1 hour
Method: RNAse P Cleavage Assays: Cleavage reactions were carried out generally according to the procedure described by Yuan et al., Proc. Natl. Acad. Sci., USA, 89:8006-8010, (1992), which is hereby incorporated by reference. Briefly, short substrate reactions were made up to a total volume of 31μ in 50 mM Tris-HCl pH 7.4, 10 mM MgCl2, 25 mM KCl, 0.1 mM EDTA, […] at 37° C. for 1 hour. After incubation, the reaction solution was mixed with loading buffer (98% formamide, 10 mM EDTA, 0.025% bromophenol blue). The cleaved substrate was separated from the uncleaved by electrophoresis on a 15% acrylamide gel containing 7 M urea. The bands were quantified on a Molecular Dynamics PHOSPHORIMAGER™.
The bands corresponding to the precursor RNA substrate and the resulting two cleavage products were counted from the dried gel using a BETASCOPE™ gel analyzer (Betagen).
RNAse P was purified by DEAE SEPHAROSE™ chromatography and glycerol density gradient centrifugation essentially as described by Bartkiewicz et al., Genes Dev. 3:488-499 (1989), which is hereby incorporated by reference.
The percentage of precursor RNA substrate remaining in either assay was plotted as function of the EGS concentration and the catalytic efficiency expressed as kcat /Km (where kcat is the rate constant of cleavage and Km is the Michaelis constant), the second order rate constant for the reaction of free EGS and substrate. Following the methods of Heidenreich and Eckstein (J. Biol. Chem., 267:1904-1909 (1992), the efficiency of the cleavage reaction, kcat /Km), was determined using the formula
The EGS constructs described in Example 2 were assayed using the RNAse P cleavage assays described in Example 1 to determine the efficiency of the cleavage reaction. FIG. 1 depicts the model system using a short substrate which was used to evaluate the ability of modified EGS molecules in inducing RNase P-mediated target cleavage. The sequence of the short substrate (SEQ ID NO. 1) was derived from the full-length pre-genomic HBV RNA.

[2] = Fetal Calf Serum Stability Assay; assay type: in vitro ADME; conditions: 10% heat-inactivated fetal calf serum, EGS about 5 μM
Method: Fetal Calf Serum Stability Assay: The nuclease resistance of modified EGS molecules were tested in a Fetal Calf Serum (FCS) Assay. It was reported by Shaw et al., Nucleic Acids Res. 19:747-750 (1991), that 10% FCS, when heated inactivated, mimics rather closely the human serum. The assay conditions were very similar to that previously described by Hoke et al., Nucleic Acids Res. 19:5743-5748 (1991). Briefly, an EGS analog to be tested was 5'-end labeled with T4 polynucleotide kinase and [γ-^35 S] ATP (this procedure can generate radiolabeled oligonucleotides which are resistant against dephosphorylation). The labeled EGS was then purified by phenol/chloroform extraction, followed by a Sephadex G-25 spin-column filtration. The purified EGS was mixed with cold EGS and 10% heat-inactivated fetal calf serum (FCS) so that the final concentration of EGS was about 5 μM. EGS analogues were treated over a period of 24 hours. Aliquots were withdrawn from the reaction mixture at different time points, mixed with 2× loading dye, heat inactivated at 90° C. for 3 min, then stored at -20° C. The results were analyzed on 12% polyacrylamide/7 M urea gels.

2.1 kb HBV RNA = experiment: RNAse P cleavage of large target RNA; assay type: biochemical; conditions: 250 nM EGS, 30 minutes at 37° C.
Method: To test cleavage with a longer target RNA molecules, different reaction conditions were used. Reactions in a total volume of 10 μl contained 40 mM Tris-HCl (pH 7.4), 10 mM MgCl2, 1 mM spermidine 10 mM dithiothreitol, 0.05 μg/μl nuclease-free bovine serum albumin, 0.01% (v/v) Triton-X100™, 0.8 Units/μl RNASIN, 0.2 mM ATP, 0.2 mM GTP, 0.2 mM UTP, 0.2 mM CTP, 0.1 μCi/μl [a^32 P] CTP, 2 mM m^7 G(5')pppG, 0.06 μg/μl yeast RNA, 25 mM KCl, 3 Units T7 RNA polymerase, 250 nM EGS, 1 μl of human RNAse P and 3 ng/μl linearized plasmid. Reactions were initiated by the addition of linearized plasmid and incubated for 30 minutes at 37° C. Reactions were terminated by the addition of 10 μl of 80% formaemide, 10 mM EDTA, 0.1% bromphenol blue. After heating for 2 minutes at 90° C., samples were electrophoresed for 2 hours at 48 watts on a 5% denaturing polyacrylamide gel. After vacuum drying for 1 hour at 60° C., the gel was analyzed by phosphoimaging.
Cleavage of Large Target RNA: Plasmid pAYW2.1, containing the sequence that encodes the 2.1 kb RNA of the AYW strain of HBV, was linearized by digestion with Not I, and then transcribed by T7 RNA polymerase in the presence of [α^32 P]CTP. Labeled transcripts were incubated for 30 minutes at 37° C. with RNase P in the presence of various EGS molecules. Reaction products were subjected to denaturing polyacrylamide gel electrophoresis, and analyzed by phosphoimaging. EGS-mediated cleavage at the targeted site of the 2.1 kb transcript produces cleavage products that are approximately 1.7 and 0.4 kb in length.

Substrate RNA (SUB-156) = experiment: RNase P-mediated cleavage assay, single turnover conditions; assay type: biochemical, hepatitis B virus (HBV); conditions: 200 nM EGS, 20 nM substrate, saturating RNase P, 60 min
Method: RNase P-mediated cleavage assay--Human RNase P was purified from HeLa cells according to the published procedures (14). Substrate RNA (SUB-156, FIG. 24) was 5'-end labeled using T4 polynucleotide kinase and [γ-^32P]ATP. The labeling mixture was then heated to 85° C. for 1 min, diluted with RNase-free water, and purified by a MICROSPIN™ G-25 column (Pharmacia) according to the manufacturer's instructions. Cleavage reactions were conducted in a reaction buffer containing 50 mM Tris-HCl (pH 7.4), 25 mM KCl, 10 mM MgCl2 and 0.1 mM EDTA. EGS oligomers and ^32 p-5'-end-labeled RNA substrate were heated in the reaction buffer without MgCl2 to 85° C. for 1 min and then slowly cooled to room temperature. The cleavage reaction was initiated by adding 2 μl of 100 mM MgCl2 and 3 μl of RNase P (enzyme activity for this preparation: cleavage of 0.035 pmol of tRNA^Tyr precursor min^-1 μl^-1). The final reaction volume was 20 μl and the reaction was incubated at 37° C. for 60 min. […] For each sample, cleavage reactions were performed in duplicates and the average values were used. To ensure reproducibility, cleavage assays for each EGS were also repeated in two separate experiments. The all-RNA EGS-159 was used as the reference sample and its cleavage values were counted as 100%. Cleavage percentages of all other EGSs were normalized against EGS-159 (Rel. Cleavage %) except in FIG. 30 and FIG. 31 where absolute cleavage percentages (Abs. Cleavage %) were plotted.
For EGS-single turnover conditions, the final concentrations were 200 nM for EGS and 20(nM for the RNA substrate. For EGS-multiple turnover conditions, the final concentrations were 200 nM for the RNA substrate and 40 nM for EGS. When determination of the time-course was required, the reaction volume was increased to 40 μl. Aliquots of 5-8 μl were removed from the reaction mixture at different time points (e.g. 1, 5, 15, 30 and 60 min), quenched in formamide loading buffer, and loaded onto 15% polyacrylamide/8 M urea gels. Quantitation of the cleavage product and the remaining RNA substrate was achieved using a Molecular Dynamics PHOSPHORIMAGER™.
General considerations--To select lead nuclease-resistant oligonucleotide prototypes as external guide sequences among many possible modifications, a reliable yet rapid in vitro cleavage assay for routine screening was used. Human RNase P, a ribonucleoprotein, is composed of a 340-nt H1 RNA component and one or more proteins (for recent review, see Ref. 16). A 3-step screening strategy was devised: 1) All analogues once synthesized were tested by a fast qualitative cleavage assay under single turnover conditions with 10-fold excess of EGS over target RNA substrate for 60 min. […] This was the best cleavage condition used in this study. Any analogue with a reasonable activity (e.g. more than 5% cleavage) would not be missed, under these circumstances, due to the high detection sensitivity provided by PHOSPHORIMAGER™. 2) Promising analogues were then assayed for stability in 50% human serum.

[3] = Nuclease resistance studies in 50% human serum; assay type: in vitro ADME; conditions: 37° C., 24 h
Method: Nuclease resistance studies--100 μl of EGS oligonucleotides (5 μM), containing a trace of 5'-end-labeled oligomers, were incubated at 37° C. for different time periods (0-24 h) with 50% human serum (Sigma, S-7023). 20 μl aliquots were diluted to 100 μl with RNase-free water, phenol/chlorform extracted, and ethanol precipitated. The residue was resuspended in 10 μl of TE and 10 μl of 2× gel loading buffer containing 98% formamide, 10 mM1 EDTA and 0.1% bromophenol blue. The mixture was heated to 85° C. for 1 min, quickly cooled on ice and frozen at -20° C. prior to electrophoresis on 15% polyacrylamide/8 M urea gels. Gels were subsequently scanned on a Molecular Dynamics PHOSPHORIMAGER™, and the stability profile for each, oligomer was estimated from the ratio of the remaining intact materials versus all radio-labeled materials (intact oligomers plus degradation products). Stability studies of non radio-labeled EGS oligomers using capillary gel electrophoresis were also carried out according to the method of Leeds et al. (15).

[4] = tested on: EGS/target RNA complex (SUB-156) with human RNase P; experiment: Measurements of kcat and A50; assay type: biochemical, hepatitis B virus (HBV)
Method: Measurements of kcat, Km and A50 --Measurements of these kinetic parameters were carried out using conditions similar to those described above (e.g. identical cleavage buffers). For kcat measurements, aliquots were taken every 30-60 s for the first 5 min. The logarithm of the percentage of cleavage (Abs. Cleavage %) was plotted against time, and the data points were fitted using a linear least-squaresanalysis. The slope represents kcat values. For Km measurements,a fixed amount of RNase P (0.6 μl) was used, while substrate concentrations (i.e. EGS/target RNA complex) varied from 25 to 500 nM. Several EGS/target RNA ratios were assayed including 1:1, 5:1 and 10:1. Attempts were made to obtain Km and Vmax values from linear Lineweaver-Burk or Eadie-Hofstee plots. The scattered values could not be fit as a hyperbolic function. For A50 measurements, the ratio between EGS and target RNA was kept as 10:1. Various amounts of RNase P (0.3 to 3 μl) were used to conduct a 60-min cleavage reaction. Percentage of cleavage was plotted against [RNase P] in μl, and 50% cleavage values (A50) were determined using a non-linear, least-squares routine (Kaleidagraph, Synergy Software). The amount of RNase P required to reach A50 was then converted to enzyme unit. 1 unit of RNase P represents the amount of RNase P that catalyzes the conversion of 1 pmol of tRNA^Tyr precursor to cleavage products per minute per μl of the enzyme preparation. 1 unit of RNase P preparation used for this study equals 28.57 μl.

INNO-139: SEQ ID NO. 3, variable loop deleted, 2'-O-methyl recognition sequences and T stem (CGAUGAAGGUUCGAAUCCUUCCCAGGAC; 2'-O-methyl modifications, chemistry not fully specified)
turnover of EGS-mediated cleavage ([1]; EGS 20 nM, target 400 nM (20 fold excess)): do not significantly affects turnover
efficiency of RNase P-mediated target cleavage relative to the wild-type EGS [1]: much of the lost activity can be restored
half-life in 10% FCS [2]: 2 h

INNO-155: SEQ ID NO. 3, 2'-O-methyl, phosphorothioate T loop, 2'-O-methyl phosphorothioate end caps (CGAUGAAGGUUCGAAUCCUUCCCAGGAC; 2'-O-methyl, phosphorothioate T loop and end caps, positions not given here)
efficiency of RNase P-mediated target cleavage relative to the wild-type EGS [1]: capable of inducing an efficient target cleavage
RNase P-mediated cleavage of 2.1 kb HBV RNA (2.1 kb HBV RNA): capable of inducing RNase P-mediated cleavage; also recorded: partially cleaved
half-life in 10% FCS [2]: more than 18 hours

INNO-140: all-RNA EGS without variable loop, SEQ ID NO. 3, 28 nucleotides (CGAUGAAGGUUCGAAUCCUUCCCAGGAC; guide RNA; RNA, backbone not given here)
half-life in 10% FCS [2]: less than 10 minutes

EGS-398: lead prototype, U54 replaced with 2'-deoxyuridine, SEQ ID NO. 44 (guide AGAUGAUAGAAGGUUAGAAUCCUUCACGCCGC; 2'-deoxyuridine at tRNA position 54, rest of chemistry not given here)
RNase P-mediated cleavage activity compared to the all-RNA control (Substrate RNA (SUB-156)): promising
degradation in 50% human serum [3]: no degradation products were detected
A50 (amount of RNase P required to achieve 50% cleavage) ([4]; 60 min, EGS in 10-fold excess relative to the RNA target): 0.061 unit
kcat ([4]; single turnover, first 5 min): indistinguishable from that of the all-RNA control
